Reference: ChEMBL document CHEMBL4414565, “Furanocoumarins from the Roots of Angelica dahurica with Inhibitory Activity against Intracellular Reactive Oxygen Species Accumulation” (J Nat Prod, 2019)

Assays:
HepG2 [1] = test: Cytotoxicity against human HepG2 cells assessed as cell viability at 10 uM incubated for 1 hr by EZ-Cytox cell viability assay; assay type: cell-based; conditions: hepg2, 1 h
HepG2 [2] = test: Inhibition of H2O2-induced ROS accumulation in human HepG2 cells assessed as ROS generation at 10 uM preincubated for 1 hr followed by H2O2-stimulation and measured after 30 mins by H2DCFDA staining based flow cytometry (reference value: 100 +/- 11.53%); assay type: functional; parameters: scale not given: the % may be the effect or the level left
HepG2 [3] = test: Hepatoprotective activity against H2O2-induced cell death in human HepG2 cells assessed as cell viability at 10 uM preincubated for 1 hr followed by H2O2-stimulation and measured after 24 hrs by EZ-Cytox cell viability assay (reference value: 43.9 +/- 5.25%); assay type: functional; conditions: read-out: Activity
HepG2 [4] = test: Hepatoprotective activity against H2O2-induced cell death in human HepG2 cells assessed as cell viability at 50 uM preincubated for 1 hr followed by H2O2-stimulation and measured after 24 hrs by EZ-Cytox cell viability assay (reference value: 43.9 +/- 5.25%); assay type: functional; conditions: read-out: Activity
HepG2 [5] = test: Inhibition of H2O2-induced ROS accumulation in human HepG2 cells at 50 uM assessed as ROS generation preincubated for 1 hr followed by H2O2-stimulation and measured after 30 mins by H2DCFDA staining based flow cytometry (reference value: 100 +/- 11.53%); assay type: functional; parameters: scale not given: the % may be the effect or the level left

Structure (SMILES): C/C=C/c1cc(OC)c(OC)c(OC)c1
- Activity (HepG2 [1]): Non-Toxic
- Activity (HepG2 [2]): 75.8%
- viability at 10 µM (HepG2 [3]): 62.2%

Structure (SMILES): COc1c2ccoc2c(OC[C@@H](O)C(C)(C)OC)c2oc(=O)ccc12
- Activity (HepG2 [1]): Non-Toxic
- Activity (HepG2 [2]): 52%
- viability at 10 µM (HepG2 [3]): 40.4%

Structure (SMILES): CC1(C)O[C@@H]1COc1c2ccoc2cc2oc(=O)ccc12
- Activity (HepG2 [1]): Non-Toxic
- Activity (HepG2 [2]): 103.9%
- viability at 10 µM (HepG2 [3]): 59.3%

Structure (SMILES): COc1c2ccoc2c(O)c2oc(=O)ccc12
- Activity (HepG2 [1]): Non-Toxic
- Activity (HepG2 [2]): 38.1%
- viability at 10 µM (HepG2 [3]): 34.6%

Structure (SMILES): COc1c2c(c(OCC=C(C)C)c3occc13)O[C@]1(C=C2)O[C@H](COc2c3ccoc3cc3oc(=O)ccc23)C(C)(C)O1
- Activity (HepG2 [1]): Non-Toxic
- Activity (HepG2 [2]): 79.9%
- viability at 10 µM (HepG2 [3]): 64.1%

Structure (SMILES): COc1c2ccoc2c(OC/C=C(/C)COC(=O)CC(C)C)c2oc(=O)ccc12
- Activity (HepG2 [1]): Non-Toxic
- Activity (HepG2 [2]): 90.1%
- viability at 10 µM (HepG2 [3]): 58.5%

Structure (SMILES): CC(C)=CCOc1c2occc2c(OC[C@@H](O)C(C)(C)O)c2ccc(=O)oc12
- Activity (HepG2 [1]): Non-Toxic
- Activity (HepG2 [2]): 78%
- viability at 10 µM (HepG2 [3]): 51%

Structure (SMILES): CC(C)=CCOc1c2occc2c(OC[C@H]2OC2(C)C)c2ccc(=O)oc12
- Activity (HepG2 [1]): Non-Toxic
- Activity (HepG2 [2]): 65.5%
- viability at 10 µM (HepG2 [3]): 56.2%

Structure (SMILES): C=C(C)[C@H](O)COc1c2ccoc2c(OCC=C(C)C)c2oc(=O)ccc12
- Activity (HepG2 [1]): Non-Toxic
- Activity (HepG2 [2]): 63.9%
- viability at 10 µM (HepG2 [3]): 50.9%

Structure (SMILES): COc1c2c(c(OCC=C(C)C)c3occc13)O[C@@]1(C=C2)O[C@H](COc2c3ccoc3cc3oc(=O)ccc23)C(C)(C)O1
- Activity (HepG2 [1]): Non-Toxic
- Activity (HepG2 [2]): 100%
- viability at 10 µM (HepG2 [3]): 63%

Structure (SMILES): CC(C)=CCOc1c2ccoc2c(OCC(O)C(C)(C)O)c2oc(=O)ccc12 (single isomer, unassigned; (-))
- Activity (HepG2 [1]): Non-Toxic
- Activity (HepG2 [2]): 85.3%
- viability at 10 µM (HepG2 [3]): 61.1%

Structure (SMILES): COc1c2ccoc2cc2oc(=O)ccc12 [BERGAPTEN]
- Activity (HepG2 [1]): Non-Toxic
- Activity (HepG2 [2]): 92.7%
- viability at 10 µM (HepG2 [3]): 60.3%

Structure (SMILES): COc1c2ccoc2c(OC[C@@H](O)C(C)(C)O)c2oc(=O)ccc12 [BYAKANGELICIN]
- Activity (HepG2 [1]): Non-Toxic
- Activity (HepG2 [2]): 57.9%
- viability at 10 µM (HepG2 [3]): 46.5%

Structure (SMILES): CC(C)=CCOc1c2ccoc2cc2oc(=O)ccc12 [ISOIMPERATORIN]
- Activity (HepG2 [1]): Non-Toxic
- Activity (HepG2 [2]): 71.1%
- viability at 10 µM (HepG2 [3]): 67%

Structure (SMILES): COc1c2occc2c(OCC=C(C)C)c2ccc(=O)oc12 [KINIDILIN]
- Activity (HepG2 [1]): Non-Toxic
- Activity (HepG2 [2]): 51.3%
- viability at 10 µM (HepG2 [3]): 60.5%

Structure (SMILES): COc1c2occc2cc2ccc(=O)oc12 [METHOXSALEN]
- Activity (HepG2 [1]): Non-Toxic
- Activity (HepG2 [2]): 77%
- viability at 10 µM (HepG2 [3]): 56.5%

Structure (SMILES): CC(C)(O)[C@H](O)COc1c2ccoc2cc2oc(=O)ccc12 [OXYPEUCEDANIN HYDRATE]
- Activity (HepG2 [1]): Non-Toxic
- Activity (HepG2 [2]): 92.8%
- viability at 10 µM (HepG2 [3]): 47.5%

Structure (SMILES): CC(C)=CCOc1c2occc2cc2ccc(=O)oc12 [PENTOSALEN]
- Activity (HepG2 [1]): Non-Toxic
- Activity (HepG2 [2]): 77.1%
- viability at 10 µM (HepG2 [3]): 71.5%

Structure (SMILES): COc1c2ccoc2c(OCC=C(C)C)c2oc(=O)ccc12 [PHELLOPTERIN]
- Activity (HepG2 [1]): Non-Toxic
- Activity (HepG2 [2]): 58.3%
- viability at 10 µM (HepG2 [3]): 57.6%

Structure (SMILES): O=c1ccc2cc3ccoc3cc2o1 [PSORALEN]
- Activity (HepG2 [1]): Non-Toxic
- Activity (HepG2 [2]): 101.4%
- viability at 10 µM (HepG2 [3]): 55.5%

Structure (SMILES): O=C(/C=C/c1ccc(O)c(O)c1)O[C@H](Cc1ccc(O)c(O)c1)C(=O)O [ROSMARINIC ACID]
- viability at 50 µM (HepG2 [4]): 65.3%
- Activity (HepG2 [5]): 49.3%
